In patent US20260250320A1, “LIPIDATED PEPTIDE INHIBITORS OF INTERLEUKIN-23 RECEPTOR” (Janssen Pharmaceutica NV, priority 2023, published 2026):
*1 amine or outer side, *2 acyl side, *3 side chain or, on linkers, in order; H or OH if unused. Where a SMILES comes first, the peptide text is derived from it. Bridges are numbered along the chain shown (N, C = ends). Side-chain parts run from the residue outwards. [ ]: non-standard residue; d: D form. The star is where a group is joined. ξ: configuration not given here. FITC = O=C1OC2(c3ccc(O)cc3Oc3cc(O)ccc32)c2ccc(NC(=S)*)cc21; Me3N+CH2CH2(OCH2CH2)4CO = C[N+](C)(C)CCOCCOCCOCCOCCC(=O)*; X28 = CC(=O)[C@H](CCC(=O)*)NC(=O)CCCCCCCCCCCCCCCCC(=O)O; Trp(7-Me) = Cc1cccc2c(C[C@H](N)C(=O)O)c[nH]c12; C18 diacid = O=C(O)CCCCCCCCCCCCCCCCC(=O)*; X6 = CN(CC[C@H](N[*:1])C(=O)[*:2])[*:3]; γGlu = O=C(O)[C@H](CCC(=O)[*:2])N[*:1]; 2Nal = N[C@@H](Cc1ccc2ccccc2c1)C(=O)O; AEF = NCCOc1ccc(C[C@H](N)C(=O)O)cc1; PEG6 = NCCOCCOCCOCCOCCOCCOCCC(=O)O; X2 = C[N+](C)(C)C[C@@H](CC(=O)O)N*; ξAEF = NCCOc1ccc(CC(N)C(=O)O)cc1; 3Pal = N[C@@H](Cc1cccnc1)C(=O)O; NMeK = CN[C@@H](CCCCN)C(=O)O; PEG4 = NCCOCCOCCOCCOCCC(=O)O; Pen = CC(C)(S)[C@H](N)C(=O)O; Suc = O=C(CCC(=O)[*:2])[*:1]; Thp = NC1(C(=O)O)CCOCC1; AEEA = NCCOCCOCC(=O)O; Sar = CNCC(=O)O

How the values were obtained:
IL-23R = molecular target: T1, IL-23R (Homo sapiens, UniProt Q5VWK5); test: IL23R Reporter Assay; format: cell-based; settings: HEK293 cells containing IL-23R, IL-12Rβ1 and STAT-inducible firefly luciferase reporter; 10 ng/mL IL-23 (EC90); 5 h
T1 construct: HEK293 cells containing IL-23R, IL-12Rβ1 and a firefly luciferase reporter gene driven by a STAT-inducible promoter (Promega); host or cells: HEK293
T1 sequence (Q5VWK5 24-629): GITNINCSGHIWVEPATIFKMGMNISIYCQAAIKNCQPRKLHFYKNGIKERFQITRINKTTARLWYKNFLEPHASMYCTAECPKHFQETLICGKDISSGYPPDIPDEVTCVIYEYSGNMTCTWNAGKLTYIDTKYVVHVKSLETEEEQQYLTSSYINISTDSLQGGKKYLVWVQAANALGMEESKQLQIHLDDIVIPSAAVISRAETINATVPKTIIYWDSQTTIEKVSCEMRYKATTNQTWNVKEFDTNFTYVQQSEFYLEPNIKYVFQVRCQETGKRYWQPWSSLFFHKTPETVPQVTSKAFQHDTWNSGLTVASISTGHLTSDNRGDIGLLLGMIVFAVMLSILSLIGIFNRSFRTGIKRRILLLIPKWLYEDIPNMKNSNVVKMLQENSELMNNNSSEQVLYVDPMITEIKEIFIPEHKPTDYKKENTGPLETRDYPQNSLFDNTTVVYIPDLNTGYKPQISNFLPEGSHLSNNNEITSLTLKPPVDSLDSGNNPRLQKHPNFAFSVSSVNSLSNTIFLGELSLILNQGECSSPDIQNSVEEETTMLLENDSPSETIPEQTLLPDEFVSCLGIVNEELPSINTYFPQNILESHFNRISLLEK
Outline: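 IC50 values were fitted with a 4-parameter Hill equation to luciferase signal, scaled between IL-23-only wells (0% inhibition) and 30 μM reference inhibitor (100%). The readout was a STAT-inducible reporter in IL-23R/IL-12Rβ1 HEK293 cells, stimulated with added 10 ng/mL IL-23 (EC90) for 5 h at 37° C and developed with BioGlo.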

[1] = system: IL-23-stimulated phosphorylated STAT3 in peripheral blood mononuclear cells (PBMCs); test: PBMC pSTAT3 Assay; format: cell-based; settings: PBMCs from healthy donors; 30 min preincubation with peptide; IL-23 5 ng/mL for 30 min; phospho-STAT3 by MSD
Outline: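 Phospho-STAT3 quantified by Meso Scale assay in lysates of PBMCs exposed to IL-23 (5 ng/mL, 30 min, 37 °C) after 30 min peptide pretreatment. Cells were cryopreserved donor PBMCs activated 4 days with anti-CD3 plus IL-1β (100 ng/mL) and starved ~4 h; IC50 reported.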

Row | Structure (SMILES) | IC50 (IL-23R) [nM] | IC50 [1] [nM]
1 | CC(=O)[C@H](CCC(=O)NCCOCCOCCOCCOCCOCCOCCC(=O)NCCCC[C@@H](C(N)=O)N(C)C(=O)[C@H](Cc1cccnc1)NC(=O)[C@H](CC(N)=O)NC(=O)[C@H](CCC(=O)O)NC(=O)C1(NC(=O)[C@H](Cc2ccc3ccccc3c2)NC(=O)C(Cc2ccc(OCCN)cc2)NC(=O)[C@H]2NC(=O)[C@H](CCN(C)C(=O)CCOCCOCCOCCOCC[N+](C)(C)C)NC(=O)[C@H](Cc3c[nH]c4c(C)cccc34)NC(=O)[C@H]([C@@H](C)O)NC(=O)[C@H](CC(=O)N(C)C)NC(=O)[C@@H](NC(=O)CCOCCOCCOCCOCC[N+](C)(C)C)C(C)(C)SSC2(C)C)CCOCC1)NC(=O)CCCCCCCCCCCCCCCCC(=O)O (stereo partly drawn) [compound 91, HOC18gEPEG2PEG2COSP6-Pen(3)-N(N(Me)2)-T-7MeW-K(NMeAc)-Pen(3)-APEG3F-2Nal-THP-K(NMeAc)-N-3Pya-Sar-CON(Me)2] ({Me3N+CH2CH2(OCH2CH2)4CO}-[Pen]D(NMe2)T[Trp(7-Me)][X6](Me3N+CH2CH2(OCH2CH2)4CO)[Pen][ξAEF][2Nal][Thp]EN[3Pal][NMeK]([PEG6-X28])-NH2; disulfide 1-6) | < 50 | < 0.5
2 | CC(=O)NCCCC[C@@H]1NC(=O)[C@H](Cc2c[nH]c3c(C)cccc23)NC(=O)[C@H]([C@@H](C)O)NC(=O)[C@H](CC(N)=O)NC(=O)[C@@H](NC(=O)[C@@H](CCCNC(=N)N)NC(=O)CCOCCOCCOCCOCCNC(=S)Nc2ccc3c(c2)C(=O)OC32c3ccc(O)cc3Oc3cc(O)ccc32)C(C)(C)SSC(C)(C)[C@@H](C(=O)N[C@@H](Cc2ccc(OCCN)cc2)C(=O)N[C@@H](Cc2ccc3ccccc3c2)C(=O)NC2(C(=O)N[C@@H](CCC(=O)O)C(=O)N[C@@H](CC(N)=O)C(=O)N[C@@H](Cc3cccnc3)C(=O)N(C)CC(=O)N[C@@H](CCCCNC(=O)COCCOCCNC(=O)COCCOCCNC(=O)CC[C@H](NC(=O)CCCCCCCCCCCCCCCCC(=O)O)C(=O)O)C(N)=O)CCOCC2)NC1=O [compound 25, FITCPEG4CO-r-Pen(3)-N-T-7MeW-K(Ac)-Pen(3)-AEF-2Nal-THP-E-N-3Pya-Sar-K(PEG2PEG2gEC18OH)-CONH2] ({FITC-PEG4}-[dR][Pen]NT[Trp(7-Me)]K(Ac)[Pen][AEF][2Nal][Thp]EN[3Pal][Sar]K([AEEA-AEEA-γGlu-C18 diacid])-NH2; disulfide 2-7) | 50 to 500 | 0.5 to 5
3 | CC(=O)NCCCC[C@@H]1NC(=O)[C@H](Cc2c[nH]c3c(C)cccc23)NC(=O)[C@H]([C@@H](C)O)NC(=O)[C@H](CCCCNC(=O)CCC(=O)N[C@H](CC(=O)O)C[N+](C)(C)C)NC(=O)[C@@H](NC(=O)[C@H](CCCNC(=N)N)NC(C)=O)C(C)(C)SSC(C)(C)[C@@H](C(=O)N[C@@H](Cc2ccc(OCCN)cc2)C(=O)N[C@@H](Cc2ccc3ccccc3c2)C(=O)NC2(C(=O)N[C@@H](CCC(=O)O)C(=O)N[C@@H](CC(N)=O)C(=O)N[C@@H](Cc3cccnc3)C(=O)N(C)[C@@H](CCCCNC(=O)COCCOCCNC(=O)COCCOCCNC(=O)CC[C@H](NC(=O)CCCCCCCCCCCCCCCCC(=O)O)C(=O)O)C(N)=O)CCOCC2)NC1=O [compound 30, MeCO-r-Pen(3)-K(d)-T-7MeW-K(Ac)-Pen(3)-AEF-2Nal-THP-E-N-3Pya-NMeK(PEG2PEG2gEC18OH)-CONH2] (Ac-R[Pen]K([Suc-X2])T[Trp(7-Me)]K(Ac)[Pen][AEF][2Nal][Thp]EN[3Pal][NMeK]([AEEA-AEEA-γGlu-C18 diacid])-NH2; disulfide 2-7) | < 50 | < 0.5
